Measurements from ChEMBL document CHEMBL4177585, “Discovery of berberine based derivatives as anti-influenza agent through blocking of neuraminidase” (Bioorg Med Chem, 2017).
≈ marks a conversion by molar mass, not a printed value. Calls of active or inactive are those of the source. The rule behind the calls is not given here.

How the values were obtained:
Influenza A virus [1] = assay: Antiviral activity against Influenza A virus (A/Puerto Rico/8/1934(H1N1)) infected in MDCK cells assessed as reduction in virus-induced cytopathogenicity incubated for 48 hrs by SRB assay; format: functional, organism-based
[2] = Cytotoxicity against MDCK cells incubated for 48 hrs assessed as reduction in cell viability by SRB assay; format: cell-based, Canis lupus familiaris; conditions: dog
Influenza A virus [3] = assay: Antiviral activity against Influenza A virus (A/Puerto Rico/8/1934(H1N1)) infected in MDCK cells assessed as reduction in virus-induced cytopathogenicity at 1 ug/ml pre-incubated for 1 hr with virus before virus infection of cells and measured after 48 hrs by SRB assay; format: functional, organism-based
[4] = target: Neuraminidase (Influenza A virus (A/Puerto Rico/8/1934(H1N1)), UniProt P03468); assay: Inhibition of neuraminidase in influenza A virus (A/Puerto Rico/8/1934(H1N1)) pre-incubated for 30 mins before NA-Star substrate addition for 30 mins by luminescence based assay
Influenza A virus [5] = assay: Antiviral activity against Influenza A virus (A/Puerto Rico/8/1934(H1N1)) infected in MDCK cells assessed as reduction in virus-induced cytopathogenicity at 1 ug/ml treated before virus infection and measured after 48 hrs by SRB assay relative to untreated control; format: functional
Influenza A virus [6] = assay: Antiviral activity against Influenza A virus (A/Victoria/3/1975(H3N2)) infected in MDCK cells assessed as reduction in virus-induced cytopathogenicity incubated for 48 hrs by SRB assay; format: functional, organism-based
Influenza B virus [7] = assay: Antiviral activity against Influenza B virus (B/Maryland/1/59) infected in MDCK cells assessed as reduction in virus-induced cytopathogenicity incubated for 48 hrs by SRB assay; format: functional, organism-based
Influenza B virus [8] = assay: Antiviral activity against Influenza B virus (B/Lee/40) infected in MDCK cells assessed as reduction in virus-induced cytopathogenicity incubated for 48 hrs by SRB assay; format: functional, organism-based; conditions: B/Lee/1940, MDCK
[9] = target: Neuraminidase (Influenza A virus (A/Puerto Rico/8/1934(H1N1))) (UniProt P03468); assay: Inhibition of neuraminidase in influenza A virus (A/Puerto Rico/8/1934(H1N1)) assessed as remaining enzyme activity at 10 ug/ml pre-incubated for 30 mins before NA-Star substrate addition for 30 mins by luminescence based assay
[10] = target: Neuraminidase (Influenza A virus (A/Puerto Rico/8/1934(H1N1))) (UniProt P03468); assay: Inhibition of neuraminidase in influenza A virus (A/Puerto Rico/8/1934(H1N1)) assessed as remaining enzyme activity at 1 ug/ml pre-incubated for 30 mins before NA-Star substrate addition for 30 mins by luminescence based assay
Influenza A virus [11] = assay: Antiviral activity against Influenza A virus (A/Puerto Rico/8/1934(H1N1)) infected in MDCK cells assessed as reduction in virus-induced cytopathogenicity treated 1 hr before virus infection and measured after 48 hrs by SRB assay; format: functional, organism-based
Influenza A virus [12] = assay: Antiviral activity against Influenza A virus (A/Puerto Rico/8/1934(H1N1)) infected in MDCK cells assessed as reduction in virus-induced cytopathogenicity treated 24 hrs after virus infection and measured after 48 hrs by SRB assay; format: functional, organism-based
Influenza A virus [13] = assay: Antiviral activity against Influenza A virus (A/Puerto Rico/8/1934(H1N1)) infected in MDCK cells assessed as reduction in virus-induced cytopathogenicity treated 4 hrs after virus infection and measured after 48 hrs by SRB assay; format: functional, organism-based
Influenza A virus [14] = assay: Antiviral activity against Influenza A virus (A/Puerto Rico/8/1934(H1N1)) infected in MDCK cells assessed as reduction in virus-induced cytopathogenicity treated 1 hr after virus infection and measured after 48 hrs by SRB assay; format: functional, organism-based
Influenza A virus [15] = assay: Antiviral activity against Influenza A virus (A/Puerto Rico/8/1934(H1N1)) infected in MDCK cells assessed as reduction in virus-induced cytopathogenicity treated 7 hrs after virus infection and measured after 48 hrs by SRB assay; format: functional, organism-based
Influenza A virus [16] = assay: Antiviral activity against Influenza A virus (A/Puerto Rico/8/1934(H1N1)) infected in MDCK cells assessed as reduction in virus-induced cytopathogenicity treated 2 hrs after virus infection and measured after 48 hrs by SRB assay; format: functional, organism-based
[17] = target: Neuraminidase (Influenza A virus (A/Puerto Rico/8/1934(H1N1))) (UniProt P03468); assay: Inhibition of neuraminidase in influenza A virus (A/Puerto Rico/8/1934(H1N1)) assessed as remaining enzyme activity at 0.1 ug/ml pre-incubated for 30 mins before NA-Star substrate addition for 30 mins by luminescence based assay
Influenza A virus [18] = assay: Antiviral activity against Influenza A virus (A/Puerto Rico/8/1934(H1N1)) infected in MDCK cells assessed as reduction in virus-induced cytopathogenicity treated immediately after virus infection and measured after 48 hrs by SRB assay; format: functional, organism-based
Influenza A virus [19] = assay: Antiviral activity against Influenza A virus (A/Puerto Rico/8/1934(H1N1)) infected in MDCK cells assessed as reduction in virus-induced cytopathogenicity treated 12 hrs after virus infection and measured after 48 hrs by SRB assay; format: functional, organism-based
Influenza A virus [20] = assay: Antiviral activity against Influenza A virus (A/Puerto Rico/8/1934(H1N1)) infected in MDCK cells assessed as reduction in virus-induced cytopathogenicity treated 6 hrs before virus infection and measured after 48 hrs by SRB assay; format: functional, organism-based
Influenza A virus [21] = assay: Antiviral activity against Influenza A virus (A/Puerto Rico/8/1934(H1N1)) infected in MDCK cells assessed as reduction in virus-induced cytopathogenicity treated 2 hrs before virus infection and measured after 48 hrs by SRB assay; format: functional, organism-based

Neuraminidase (Influenza A virus (A/Puerto Rico/8/1934(H1N1)), UniProt P03468), sequence (P03468 whole entry): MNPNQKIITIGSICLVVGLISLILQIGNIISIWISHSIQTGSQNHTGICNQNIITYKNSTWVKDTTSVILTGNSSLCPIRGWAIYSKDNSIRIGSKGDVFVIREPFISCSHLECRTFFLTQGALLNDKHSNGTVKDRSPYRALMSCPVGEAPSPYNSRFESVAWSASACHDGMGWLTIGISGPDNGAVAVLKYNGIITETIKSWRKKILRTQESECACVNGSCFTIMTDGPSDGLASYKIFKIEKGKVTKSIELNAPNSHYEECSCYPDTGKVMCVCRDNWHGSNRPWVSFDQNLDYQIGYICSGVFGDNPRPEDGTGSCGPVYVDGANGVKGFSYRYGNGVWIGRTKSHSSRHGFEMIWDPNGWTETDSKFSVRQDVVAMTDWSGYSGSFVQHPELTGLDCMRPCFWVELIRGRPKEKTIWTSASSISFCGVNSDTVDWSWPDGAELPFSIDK
Neuraminidase (Influenza A virus (A/Puerto Rico/8/1934(H1N1))), sequence (P03468 whole entry): as above

SMILES | IC50 (Influenza A virus [1]) | CC50 at 48 h [2] | Ki [4] | further results
COc1ccc2cc3[n+](cc2c1OC)CCc1cc2c(cc1-3)OCO2 [BERBERINE] | 31.3 mg/L | 70.2 mg/L | 14.3 µM | Activity (Influenza A virus [3]): Active; inhibition at 1 µg/mL (Influenza A virus [5]): 12.1%
COc1cc(CN2CCN(c3ccc(Cl)cc3)CC2)c2cc3[n+](cc2c1O)CCc1cc2c(cc1-3)OCO2.[Cl-] | 45.3 mg/L | 480 mg/L | 0.96 µM | –
COc1cc(CN2CCN(C(=O)c3ccccc3)CC2)c2cc3[n+](cc2c1O)CCc1cc2c(cc1-3)OCO2.[Cl-] | > 50 mg/L | 424 mg/L | 0.58 µM | –
COc1cc(CN2CCN(c3ccccc3Cl)CC2)c2cc3[n+](cc2c1O)CCc1cc2c(cc1-3)OCO2.[Cl-] | 1.63 mg/L | 401 mg/L | 2.65 µM | IC50 (Influenza A virus [6]): 2.98 mg/L; Activity (Influenza A virus [3]): Active; IC50 (Influenza B virus [7]): 4.17 mg/L; inhibition at 1 µg/mL (Influenza A virus [5]): 22.1%; IC50 (Influenza B virus [8]): 6.33 mg/L
COc1cc(CN2CCN(c3ccccn3)CC2)c2cc3[n+](cc2c1O)CCc1cc2c(cc1-3)OCO2.[Cl-] | 2.64 mg/L | 185 mg/L | 0.17 µM | –
COc1cc(CN2CCN(c3cccc(Cl)c3Cl)CC2)c2cc3[n+](cc2c1O)CCc1cc2c(cc1-3)OCO2.[Cl-] | 8.37 mg/L | 63.2 mg/L | 0.35 µM | –
COc1cc(CN2CCN(c3ccccc3[N+](=O)[O-])CC2)c2cc3[n+](cc2c1O)CCc1cc2c(cc1-3)OCO2.[Cl-] | > 50 mg/L | 230 mg/L | 1.34 µM | –
COc1cc(CN2CCCCC2)c2cc3[n+](cc2c1O)CCc1cc2c(cc1-3)OCO2.[Cl-] | > 50 mg/L | 1640 mg/L | 0.68 µM | –
COc1cc(Cn2c3ccccc3c3ccccc32)c2cc3[n+](cc2c1O)CCc1cc2c(cc1-3)OCO2.[Cl-] | 9.79 mg/L | 62.6 mg/L | 0.49 µM | –
CCOC(=O)C1=C[C@@H](OC(CC)CC)[C@H](NC(C)=O)[C@@H](N)C1 [OSELTAMIVIR] | 3.19 mg/L (≈ 10.2 µM) | – | – | Activity [9]: 22.6%; IC50 (Influenza A virus [6]): 12.1 mg/L (≈ 38.9 µM); Activity (Influenza A virus [3]): Active; Activity [10]: 32.9%; IC50 (Influenza A virus [11]): 69.8 mg/L (≈ 223 µM); IC50 (Influenza A virus [12]): > 100 mg/L; IC50 (Influenza A virus [13]): 7.39 mg/L (≈ 23.7 µM); IC50 (Influenza B virus [7]): 33.2 mg/L (≈ 106 µM); IC50 (Influenza A virus [14]): 6.13 mg/L (≈ 19.6 µM); IC50 (Influenza A virus [15]): 12.8 mg/L (≈ 40.8 µM); IC50 (Influenza A virus [16]): 6.05 mg/L (≈ 19.4 µM); Activity [17]: 41.9%; IC50 (Influenza A virus [18]): 4.12 mg/L (≈ 13.2 µM); IC50 (Influenza A virus [19]): 84.3 mg/L (≈ 270 µM); inhibition at 1 µg/mL (Influenza A virus [5]): 25.7%; IC50 (Influenza B virus [8]): 41.9 mg/L (≈ 134 µM); IC50 (Influenza A virus [20]): > 100 mg/L; IC50 (Influenza A virus [21]): 71.5 mg/L (≈ 229 µM)
COc1cc(CN2CCN(c3ccc(F)cc3)CC2)c2cc3[n+](cc2c1O)CCc1cc2c(cc1-3)OCO2.[Cl-] | 0.87 mg/L | 72.6 mg/L | 0.48 µM | Activity [9]: 16.6%; IC50 (Influenza A virus [6]): 1.15 mg/L; Activity (Influenza A virus [3]): Active; Activity [10]: 23.4%; IC50 (Influenza A virus [11]): 3.4 mg/L; IC50 (Influenza A virus [12]): > 100 mg/L; IC50 (Influenza A virus [13]): 1.75 mg/L; IC50 (Influenza B virus [7]): 3.12 mg/L; IC50 (Influenza A virus [14]): 1.22 mg/L; IC50 (Influenza A virus [15]): 9.38 mg/L; IC50 (Influenza A virus [16]): 1.19 mg/L; Activity [17]: 43.1%; IC50 (Influenza A virus [18]): 0.89 mg/L; IC50 (Influenza A virus [19]): 23.2 mg/L; inhibition at 1 µg/mL (Influenza A virus [5]): 48.3%; IC50 (Influenza B virus [8]): 4.12 mg/L; IC50 (Influenza A virus [20]): 52.4 mg/L; IC50 (Influenza A virus [21]): 21.3 mg/L
COc1ccc(N2CCN(Cc3cc(OC)c(O)c4c[n+]5c(cc34)-c3cc4c(cc3CC5)OCO4)CC2)c(OC)c1.[Cl-] | 47.8 mg/L | – | 1.59 µM | –
COc1cc(CN2CCN(c3ccc([N+](=O)[O-])cc3)CC2)c2cc3[n+](cc2c1O)CCc1cc2c(cc1-3)OCO2.[Cl-] | > 50 mg/L | 1380 mg/L | 1.33 µM | –
COc1cc(CN2CCN(c3cccc(Cl)c3)CC2)c2cc3[n+](cc2c1O)CCc1cc2c(cc1-3)OCO2.[Cl-] | 29.6 mg/L | – | 0.25 µM | –
COc1cc(CN2CCN(c3ccc4ccccc4c3)CC2)c2cc3[n+](cc2c1O)CCc1cc2c(cc1-3)OCO2.[Cl-] | 20 mg/L | 150 mg/L | 0.24 µM | –
COc1cc(CN2CCOCC2)c2cc3[n+](cc2c1O)CCc1cc2c(cc1-3)OCO2.[Cl-] | 44.3 mg/L | 126 mg/L | 0.48 µM | –
COc1cc(CN2CCN(c3ccc(OC(F)(F)F)cc3)CC2)c2cc3[n+](cc2c1O)CCc1cc2c(cc1-3)OCO2.[Cl-] | 8.45 mg/L | 312 mg/L | 0.49 µM | –
COc1cc(CN2CCN(C(c3ccccc3)c3ccccc3)CC2)c2cc3[n+](cc2c1O)CCc1cc2c(cc1-3)OCO2.[Cl-] | 3.14 mg/L | – | 0.49 µM | –
COc1cc(CN2CCN(c3ccc(C)cc3C)CC2)c2cc3[n+](cc2c1O)CCc1cc2c(cc1-3)OCO2.[Cl-] | 60.1 mg/L | 134 mg/L | 0.42 µM | –
COc1cc(CN2CCN(c3ccc(C(F)(F)F)cc3)CC2)c2cc3[n+](cc2c1O)CCc1cc2c(cc1-3)OCO2.[Cl-] | 10 mg/L | – | 1.59 µM | –
COc1cc(CN2CCN(c3ccc(F)cc3F)CC2)c2cc3[n+](cc2c1O)CCc1cc2c(cc1-3)OCO2.[Cl-] | 9.92 mg/L | 73.9 mg/L | 0.41 µM | –
COc1cc(CN2CCN(c3ccc(C)cc3)CC2)c2cc3[n+](cc2c1O)CCc1cc2c(cc1-3)OCO2.[Cl-] | 1.48 mg/L | 68.5 mg/L | 0.29 µM | IC50 (Influenza A virus [6]): 2.13 mg/L; Activity (Influenza A virus [3]): Active; IC50 (Influenza B virus [7]): 5.1 mg/L; inhibition at 1 µg/mL (Influenza A virus [5]): 25.3%; IC50 (Influenza B virus [8]): 6.17 mg/L
COc1cc(CN2CCN(c3ccccc3F)CC2)c2cc3[n+](cc2c1O)CCc1cc2c(cc1-3)OCO2.[Cl-] | 9.16 mg/L | 68.8 mg/L | 5.2 µM | –
COc1cc(CN2CCN(c3ncccn3)CC2)c2cc3[n+](cc2c1O)CCc1cc2c(cc1-3)OCO2.[Cl-] | 2.65 mg/L | 223 mg/L | 0.07 µM | –
